Assay results as given in US4746349A, “Method and compositions for suppressing the nitrification of ammonium in plant growth medium” (American Cyanamid Company, priority 1986, dated 1988).
Where a name gives a salt, the structure may show the parent alone.

Columns and labels:
[1] = tested on: corn (Dekalb T2000, B73×LH 38); test: Field evaluation: yield of corn, silt loam location; format: in vivo; conditions: N 168 kg/ha, chemical 1.2 l/ha
From the text: (§1) Field Evaluation: Field evaluations are based on the N content of corn leaf tissue and grain yield utilizing two soil types. Replicate (4X) field plots are established at two different locations, one having (I) silt loam soil and one (II) with sandy loam soil. These soils had been previously cropped to non-fertilized corn to reduce the level of residual N. Maduramicin monoammonium salt is applied (0.25, 0.125, 0.07 ppm) with NH3 (84 or 168 kg N/ha) through a "downstream" by an injection system into silt loam plots. Nitrapyrin (0.25 ppm=0.56 kg a.i./ha), nitrogen checks, benzyl alcohol (1.16L/ha) (BA) and a O nitrogen check are included for comparison. Individual replicate plot sizes are 3.04M×22.8M (4, 76-cm corn rows×22.8M long) Anhydrous ammonia are injected on 76-cm centers.
(§2) Urea, treated or non-treated with Maduramicin monoammonium salt is broadcast on the surface of sandy loam plots. Plots are then planted with corn the day following treatment. Dekalb T2000 is planted 10 May on silt loam plots and Pioneer 3352 is planted 11 May in sandy loam plots.
(§3) Corn ear leaf tissues collected at silking on silt loam plots or 60 days post silking (on silt loam and sandy loam plots) are collected from each plot and assayed for total N (AOAC procedures). Grain yields are determined by harvesting the two center rows×15.2 m of each plot.

[2] = tested on: corn (Dekalb T2000, B73×LH 38); test: Field evaluation: corn ear leaf tissue nitrogen, silt loam plots; format: in vivo; conditions: 1.1 l/ha; NH3 168 kg N/ha; ear leaf at silking
From the text: as §1, §2, §3

Nitrobacter spp. = test: Nitrite nitrogen in ammonium amended soil incubated at 25° C.; conditions: soil 25° C., 200 ppm N
Procedure: Determination of nitrite nitrogen and nitrate nitrogen in soil prepared in Example 1 above, which is amended with 200 ppm of nitrogen as aqueous ammonium sulfate, […], is determined using the nitrite and nitrate analysis of the American Organization of Analytical Chemists (AOAC pp. 653-655).

Nitrosomonas spp. = test: Nitrification of ammonium in soil incubated at 25° C. (ammonium recovery, nitrate accumulation); conditions: soil 25° C.; for Concentration of nitrate nitrogen / Recovery of Ammonium Nitrogen: 200 ppm N
Procedure, shortened: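 Ammonium recovery and nitrate accumulation read out after KCl extraction (2M, 1 h shaking) and steam distillation of ammonium, nitrite and nitrate. Soil was amended with 200 ppm N as ammonium sulfate and 0.10–0.50 ppm inhibitor, held at 50% water saturation at 25 °C, sampled 0–20 weeks in duplicate.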

corn (Pioneer 3352) = test: Field evaluation: yield of corn, sandy loam plots; format: in vivo; conditions: sandy loam; N 168 kg/ha as NH3; chemical 1.2 l/ha
From the text: as §1
Plots are then planted with corn the day following treatment. Dekalb T2000 is planted 10 May on silt loam plots and Pioneer 3352 is planted 11 May in sandy loam plots.
as §3

SMILES: OCc1ccccc1 [Benzyl Alcohol]
- AVERAGE YIELD 4-REPLICATES [1]: 140.9 HECTOLITERS/HECTARE
- Corn Leaf Tissue Analysis (total N) [2]: 271 10^2 ug/g
- Concentration of nitrite nitrogen (Nitrobacter spp.; 5%, week 0): 6 ppm
- Concentration of nitrite nitrogen (Nitrobacter spp.; 5%, week 1): 5 ppm
- Concentration of nitrite nitrogen (Nitrobacter spp.; 5%, week 2): 5 ppm
- Concentration of nitrite nitrogen (Nitrobacter spp.; 5%, week 4): 6 ppm
- Concentration of nitrite nitrogen (Nitrobacter spp.; 5%, week 7): 3 ppm
- Concentration of nitrite nitrogen (Nitrobacter spp.; 5%, week 9): -1 ppm
- Concentration of nitrite nitrogen (Nitrobacter spp.; 5%, week 12): 5 ppm
- Concentration of nitrite nitrogen (Nitrobacter spp.; 5%, week 16): 1 ppm
- Concentration of nitrite nitrogen (Nitrobacter spp.; 5%, week 20): 27 ppm
- Effect on nitrification, in words (Nitrosomonas spp.; 5%): markedly inhibited nitrification throughout the incubation period
- Concentration of nitrate nitrogen (Nitrosomonas spp.; 5%, week 0): 19 PPM
- Recovery of Ammonium Nitrogen (Nitrosomonas spp.; 5%, week 0): 194 PPM
- Concentration of nitrate nitrogen (Nitrosomonas spp.; 5%, week 1): 21 PPM
- Recovery of Ammonium Nitrogen (Nitrosomonas spp.; 5%, week 1): 163 PPM
- Concentration of nitrate nitrogen (Nitrosomonas spp.; 5%, week 2): 16 PPM
- Recovery of Ammonium Nitrogen (Nitrosomonas spp.; 5%, week 2): 163 PPM
- Concentration of nitrate nitrogen (Nitrosomonas spp.; 5%, week 4): 20 PPM
- Recovery of Ammonium Nitrogen (Nitrosomonas spp.; 5%, week 4): 168 PPM
- Concentration of nitrate nitrogen (Nitrosomonas spp.; 5%, week 7): 15 PPM
- Recovery of Ammonium Nitrogen (Nitrosomonas spp.; 5%, week 7): 164 PPM
- Concentration of nitrate nitrogen (Nitrosomonas spp.; 5%, week 9): 99 PPM
- Recovery of Ammonium Nitrogen (Nitrosomonas spp.; 5%, week 9): 41 PPM
- Concentration of nitrate nitrogen (Nitrosomonas spp.; 5%, week 12): 19 PPM
- Recovery of Ammonium Nitrogen (Nitrosomonas spp.; 5%, week 12): 163 PPM
- Concentration of nitrate nitrogen (Nitrosomonas spp.; 5%, week 16): 27 PPM
- Recovery of Ammonium Nitrogen (Nitrosomonas spp.; 5%, week 16): 169 PPM
- Concentration of nitrate nitrogen (Nitrosomonas spp.; 5%, week 20): 20 PPM
- Recovery of Ammonium Nitrogen (Nitrosomonas spp.; 5%, week 20): 139 PPM
- AVERAGE YIELD 4-REPLICATES (corn (Pioneer 3352)): 165.3 HECTOLITERS/HECTARE

SMILES: CC[C@@H](C(=O)[C@@H](C)[C@@H](O)[C@H](C)[C@@H]1O[C@@H]([C@@H](CC)C(=O)O)CC[C@@H]1C)[C@H]1O[C@]2(C=C[C@@H](O)[C@]3(CC[C@@](C)([C@H]4CC[C@](O)(CC)[C@H](C)O4)O3)O2)[C@H](C)C[C@@H]1C [Salinomycin monosodium salt, Salinomycin]
- Concentration of nitrite nitrogen (Nitrobacter spp.; 0.10 ppm, week 0): 7 ppm
- Concentration of nitrite nitrogen (Nitrobacter spp.; 0.10 ppm, week 1): 5 ppm
- Concentration of nitrite nitrogen (Nitrobacter spp.; 0.10 ppm, week 2): 7 ppm
- Concentration of nitrite nitrogen (Nitrobacter spp.; 0.10 ppm, week 4): 6 ppm
- Concentration of nitrite nitrogen (Nitrobacter spp.; 0.10 ppm, week 7): -4 ppm
- Concentration of nitrite nitrogen (Nitrobacter spp.; 0.10 ppm, week 9): 25 ppm
- Concentration of nitrite nitrogen (Nitrobacter spp.; 0.10 ppm, week 12): 7 ppm
- Concentration of nitrite nitrogen (Nitrobacter spp.; 0.10 ppm, week 16): 7 ppm
- Concentration of nitrite nitrogen (Nitrobacter spp.; 0.10 ppm, week 20): 11 ppm
- Concentration of nitrite nitrogen (Nitrobacter spp.; 0.25 ppm, week 0): 8 ppm
- Concentration of nitrite nitrogen (Nitrobacter spp.; 0.25 ppm, week 1): 5 ppm
- Concentration of nitrite nitrogen (Nitrobacter spp.; 0.25 ppm, week 2): 3 ppm
- Concentration of nitrite nitrogen (Nitrobacter spp.; 0.25 ppm, week 4): 7 ppm
- Concentration of nitrite nitrogen (Nitrobacter spp.; 0.25 ppm, week 7): -1 ppm
- Concentration of nitrite nitrogen (Nitrobacter spp.; 0.25 ppm, week 9): 7 ppm
- Concentration of nitrite nitrogen (Nitrobacter spp.; 0.25 ppm, week 12): 9 ppm
- Concentration of nitrite nitrogen (Nitrobacter spp.; 0.25 ppm, week 16): 2 ppm
- Concentration of nitrite nitrogen (Nitrobacter spp.; 0.25 ppm, week 20): 47 ppm
- Concentration of nitrite nitrogen (Nitrobacter spp.; 0.50 ppm, week 0): 9 ppm
- Concentration of nitrite nitrogen (Nitrobacter spp.; 0.50 ppm, week 1): 3 ppm
- Concentration of nitrite nitrogen (Nitrobacter spp.; 0.50 ppm, week 2): 3 ppm
- Concentration of nitrite nitrogen (Nitrobacter spp.; 0.50 ppm, week 4): 14 ppm
- Concentration of nitrite nitrogen (Nitrobacter spp.; 0.50 ppm, week 7): 4 ppm
- Concentration of nitrite nitrogen (Nitrobacter spp.; 0.50 ppm, week 9): -1 ppm
- Concentration of nitrite nitrogen (Nitrobacter spp.; 0.50 ppm, week 12): 1 ppm
- Concentration of nitrite nitrogen (Nitrobacter spp.; 0.50 ppm, week 16): 8 ppm
- Concentration of nitrite nitrogen (Nitrobacter spp.; 0.50 ppm, week 20): 14 ppm
- Concentration of nitrate nitrogen (Nitrosomonas spp.; 0.10 ppm, week 0): 18 PPM
- Recovery of Ammonium Nitrogen (Nitrosomonas spp.; 0.10 ppm, week 0): 194 PPM
- Concentration of nitrate nitrogen (Nitrosomonas spp.; 0.10 ppm, week 1): 20 PPM
- Recovery of Ammonium Nitrogen (Nitrosomonas spp.; 0.10 ppm, week 1): 171 PPM
- Concentration of nitrate nitrogen (Nitrosomonas spp.; 0.10 ppm, week 2): 20 PPM
- Recovery of Ammonium Nitrogen (Nitrosomonas spp.; 0.10 ppm, week 2): 183 PPM
- Concentration of nitrate nitrogen (Nitrosomonas spp.; 0.10 ppm, week 4): 26 PPM
- Recovery of Ammonium Nitrogen (Nitrosomonas spp.; 0.10 ppm, week 4): 184 PPM
- Concentration of nitrate nitrogen (Nitrosomonas spp.; 0.10 ppm, week 7): 27 PPM
- Recovery of Ammonium Nitrogen (Nitrosomonas spp.; 0.10 ppm, week 7): 136 PPM
- Concentration of nitrate nitrogen (Nitrosomonas spp.; 0.10 ppm, week 9): 201 PPM
- Recovery of Ammonium Nitrogen (Nitrosomonas spp.; 0.10 ppm, week 9): 3 PPM
- Concentration of nitrate nitrogen (Nitrosomonas spp.; 0.10 ppm, week 12): 219 PPM
- Recovery of Ammonium Nitrogen (Nitrosomonas spp.; 0.10 ppm, week 12): 10 PPM
- Concentration of nitrate nitrogen (Nitrosomonas spp.; 0.10 ppm, week 16): 233 PPM
- Recovery of Ammonium Nitrogen (Nitrosomonas spp.; 0.10 ppm, week 16): 5 PPM
- Recovery of Ammonium Nitrogen (Nitrosomonas spp.; 0.10 ppm, week 20): 0 PPM
- Specific inhibition of nitrification through activity against Nitrosomonas spp., in words (Nitrosomonas spp.; 0.1 to 0.5 ppm): appear to specifically inhibit nitrification through activity against Nitrosomonas spp.
- Concentration of nitrate nitrogen (Nitrosomonas spp.; 0.25 ppm, week 0): 19 PPM
- Recovery of Ammonium Nitrogen (Nitrosomonas spp.; 0.25 ppm, week 0): 193 PPM
- Concentration of nitrate nitrogen (Nitrosomonas spp.; 0.25 ppm, week 1): 23 PPM
- Recovery of Ammonium Nitrogen (Nitrosomonas spp.; 0.25 ppm, week 1): 176 PPM
- Concentration of nitrate nitrogen (Nitrosomonas spp.; 0.25 ppm, week 2): 22 PPM
- Recovery of Ammonium Nitrogen (Nitrosomonas spp.; 0.25 ppm, week 2): 189 PPM
- Concentration of nitrate nitrogen (Nitrosomonas spp.; 0.25 ppm, week 4): 23 PPM
- Recovery of Ammonium Nitrogen (Nitrosomonas spp.; 0.25 ppm, week 4): 185 PPM
- Concentration of nitrate nitrogen (Nitrosomonas spp.; 0.25 ppm, week 7): 45 PPM
- Recovery of Ammonium Nitrogen (Nitrosomonas spp.; 0.25 ppm, week 7): 167 PPM
- Concentration of nitrate nitrogen (Nitrosomonas spp.; 0.25 ppm, week 9): 44 PPM
- Recovery of Ammonium Nitrogen (Nitrosomonas spp.; 0.25 ppm, week 9): 171 PPM
- Concentration of nitrate nitrogen (Nitrosomonas spp.; 0.25 ppm, week 12): 57 PPM
- Recovery of Ammonium Nitrogen (Nitrosomonas spp.; 0.25 ppm, week 12): 168 PPM
- Concentration of nitrate nitrogen (Nitrosomonas spp.; 0.25 ppm, week 16): 121 PPM
- Recovery of Ammonium Nitrogen (Nitrosomonas spp.; 0.25 ppm, week 16): 111 PPM
- Concentration of nitrate nitrogen (Nitrosomonas spp.; 0.25 ppm, week 20): 187 PPM
- Recovery of Ammonium Nitrogen (Nitrosomonas spp.; 0.25 ppm, week 20): 4 PPM
- Concentration of nitrate nitrogen (Nitrosomonas spp.; 0.50 ppm, week 0): 19 PPM
- Recovery of Ammonium Nitrogen (Nitrosomonas spp.; 0.50 ppm, week 0): 194 PPM
- Concentration of nitrate nitrogen (Nitrosomonas spp.; 0.50 ppm, week 1): 22 PPM
- Recovery of Ammonium Nitrogen (Nitrosomonas spp.; 0.50 ppm, week 1): 167 PPM
- Concentration of nitrate nitrogen (Nitrosomonas spp.; 0.50 ppm, week 2): 21 PPM
- Recovery of Ammonium Nitrogen (Nitrosomonas spp.; 0.50 ppm, week 2): 185 PPM
- Concentration of nitrate nitrogen (Nitrosomonas spp.; 0.50 ppm, week 4): 18 PPM
- Recovery of Ammonium Nitrogen (Nitrosomonas spp.; 0.50 ppm, week 4): 170 PPM
- Concentration of nitrate nitrogen (Nitrosomonas spp.; 0.50 ppm, week 7): 18 PPM
- Recovery of Ammonium Nitrogen (Nitrosomonas spp.; 0.50 ppm, week 7): 197 PPM
- Concentration of nitrate nitrogen (Nitrosomonas spp.; 0.50 ppm, week 9): 26 PPM
- Recovery of Ammonium Nitrogen (Nitrosomonas spp.; 0.50 ppm, week 9): 196 PPM
- Concentration of nitrate nitrogen (Nitrosomonas spp.; 0.50 ppm, week 12): 39 PPM
- Recovery of Ammonium Nitrogen (Nitrosomonas spp.; 0.50 ppm, week 12): 191 PPM
- Concentration of nitrate nitrogen (Nitrosomonas spp.; 0.50 ppm, week 16): 28 PPM
- Recovery of Ammonium Nitrogen (Nitrosomonas spp.; 0.50 ppm, week 16): 205 PPM
- Concentration of nitrate nitrogen (Nitrosomonas spp.; 0.50 ppm, week 20): 45 PPM
- Recovery of Ammonium Nitrogen (Nitrosomonas spp.; 0.50 ppm, week 20): 176 PPM
- Effectiveness as nitrification inhibitor, in words (Nitrosomonas spp.; 20 weeks study): second most effective inhibitor
